# Results published in PubChem BioAssay (NCI).
#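 Results reflect a 48-hour exposure of cells in 96-well plates to compound at five concentrations. Abbreviation: GI50, concentration required for 50% inhibition of growth. TGI: total growth inhibition.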
# Assays:
# Test in all cases: inhibition of tumour cell growth, NCI panel, 48 h
# [1] = tested on: MDA-MB-231 breast
# [2] = tested on: HT29 colon
# [3] = tested on: A549 NSCLC
# [4] = tested on: UO-31 renal
# [5] = tested on: OVCAR-4 ovarian
# [6] = tested on: UACC-257 melanoma
# [7] = tested on: UACC-62 melanoma
# [8] = tested on: MALME-3M melanoma
# [9] = tested on: SF-268 CNS
# [10] = tested on: RXF 393 renal
# [11] = tested on: T-47D breast
# [12] = tested on: ACHN renal
# [13] = tested on: SK-OV-3 ovarian
# [14] = tested on: OVCAR-5 ovarian
# [15] = tested on: MCF7 breast
# [16] = tested on: M14 melanoma
# [17] = tested on: 786-0 renal
# [18] = tested on: CAKI-1 renal
# [19] = tested on: SN12C renal
# [20] = tested on: A498 renal
# [21] = tested on: HOP-92 NSCLC
# [22] = tested on: SK-MEL-5 melanoma
# [23] = tested on: MDA-MB-435
# [24] = tested on: KM12 colon
# [25] = tested on: SK-MEL-28 melanoma
# [26] = tested on: HCC-2998 colon
# [27] = tested on: HS 578T breast
# [28] = tested on: MOLT-4 leukemia
# [29] = tested on: COLO 205 colon
# [30] = tested on: SW-620 colon
# [31] = tested on: TK-10 renal
# [32] = tested on: EKVX NSCLC
# [33] = tested on: SF-539 CNS
# [34] = tested on: HL-60(TB) leukemia
# [35] = tested on: U251 CNS
# [36] = tested on: K-562 leukemia
# [37] = tested on: NCI-H460 lung
# [38] = tested on: HCT-116 colon
# [39] = tested on: SK-MEL-2 melanoma
# [40] = tested on: NCI-H522 lung
# [41] = tested on: OVCAR-3 ovarian
# [42] = tested on: HCT-15 colon
# [43] = tested on: BT-549 breast
# [44] = tested on: HOP-62 NSCLC
# [45] = tested on: PC-3 prostate
# [46] = tested on: SR leukemia
# [47] = tested on: IGROV1 ovarian
# [48] = tested on: SNB-19 CNS
# [49] = tested on: NCI/ADR-RES ovarian
# [50] = tested on: RPMI-8226 leukemia
# [51] = tested on: OVCAR-8 ovarian
# [52] = tested on: LOX IMVI melanoma
# [53] = tested on: CCRF-CEM leukemia
# [54] = tested on: NCI-H226 lung
# [55] = tested on: NCI-H23 lung
# [56] = tested on: SNB-75 CNS
# [57] = tested on: SF-295 CNS
# [58] = tested on: DU-145 prostate
structure (smiles),measurement,setting,value
CCCCCc1nc2c(c3c1CCCC3)CCCC2,GI50,[1],11 µM
same,TGI,[1],26.2 µM
same,GI50,[2],1.85 µM
same,TGI,[2],14.8 µM
same,GI50,[3],11.9 µM
same,TGI,[3],64 µM
same,GI50,[4],2.19 µM
same,TGI,[4],13.9 µM
same,GI50,[5],5.61 µM
same,TGI,[5],95.3 µM
same,GI50,[6],9.7 µM
same,TGI,[6],31.6 µM
same,GI50,[7],12.1 µM
same,TGI,[7],29.2 µM
same,GI50,[8],11.3 µM
same,TGI,[8],25.7 µM
same,GI50,[9],14.8 µM
same,TGI,[9],44.4 µM
same,GI50,[10],13.1 µM
same,TGI,[10],27.3 µM
same,GI50,[11],6.2 µM
same,TGI,[11],24.9 µM
same,GI50,[12],11.5 µM
same,TGI,[12],30.5 µM
same,GI50,[13],11.6 µM
same,TGI,[13],30 µM
same,GI50,[14],9.08 µM
same,TGI,[14],27.4 µM
same,GI50,[15],5.28 µM
same,TGI,[15],21.2 µM
same,GI50,[16],12.9 µM
same,TGI,[16],29.4 µM
same,GI50,[17],13.4 µM
same,TGI,[17],27.8 µM
same,GI50,[18],3.98 µM
same,TGI,[18],24 µM
same,GI50,[19],12.3 µM
same,TGI,[19],34.2 µM
same,GI50,[20],3.28 µM
same,TGI,[20],19.6 µM
same,GI50,[21],1.95 µM
same,TGI,[21],8.36 µM
same,GI50,[22],6.19 µM
same,TGI,[22],18.8 µM
same,GI50,[23],14.4 µM
same,TGI,[23],38.7 µM
same,GI50,[24],6.94 µM
same,TGI,[24],33.7 µM
same,GI50,[25],14.8 µM
same,TGI,[25],36.2 µM
same,GI50,[26],10.2 µM
same,TGI,[26],29.5 µM
same,GI50,[27],14 µM
same,TGI,[27],69.3 µM
same,GI50,[28],8.88 µM
same,TGI,[28],62.6 µM
same,GI50,[29],10.2 µM
same,TGI,[29],22.1 µM
same,GI50,[30],11.2 µM
same,TGI,[30],27.3 µM
same,GI50,[31],8.44 µM
same,TGI,[31],22.4 µM
same,GI50,[32],4.21 µM
same,TGI,[32],26.9 µM
same,GI50,[33],17.4 µM
same,TGI,[33],36.2 µM
same,GI50,[34],5.8 µM
same,TGI,[34],29.4 µM
same,GI50,[35],11.9 µM
same,TGI,[35],29.1 µM
same,GI50,[36],4.76 µM
same,TGI,[36],27.9 µM
same,GI50,[37],12 µM
same,TGI,[37],30.1 µM
same,GI50,[38],3.01 µM
same,TGI,[38],15.2 µM
same,GI50,[39],12.7 µM
same,TGI,[39],27.4 µM
same,GI50,[40],2.84 µM
same,TGI,[40],17.9 µM
same,GI50,[41],4.7 µM
same,TGI,[41],17.8 µM
same,GI50,[42],8.94 µM
same,TGI,[42],26.8 µM
same,GI50,[43],10.7 µM
same,TGI,[43],24.4 µM
same,GI50,[44],13.1 µM
same,TGI,[44],29.1 µM
same,GI50,[45],8.04 µM
same,TGI,[45],31.1 µM
same,GI50,[46],15.7 µM
same,TGI,[46],45.1 µM
same,GI50,[47],5.73 µM
same,TGI,[47],26.2 µM
same,GI50,[48],18.3 µM
same,TGI,[48],> 100 µM
same,GI50,[49],3.91 µM
same,TGI,[49],22.6 µM
same,GI50,[50],3.39 µM
same,TGI,[50],16.4 µM
same,GI50,[51],10.1 µM
same,TGI,[51],36.9 µM
same,GI50,[52],13.4 µM
same,TGI,[52],27 µM
same,GI50,[53],11.1 µM
same,TGI,[53],43.2 µM
same,GI50,[54],9.57 µM
same,TGI,[54],25.6 µM
same,GI50,[55],5.06 µM
same,TGI,[55],25.6 µM
same,GI50,[56],13.3 µM
same,TGI,[56],51.7 µM
same,GI50,[57],4.58 µM
same,TGI,[57],20.9 µM
same,GI50,[58],23.2 µM
same,TGI,[58],> 100 µM
